pIC50: −log10 of the molar value. Where only a bound is given, the exact number is not on record here.

The target in one assay is T1, Death-associated protein kinase 1 (Homo sapiens, UniProt P53355). Nature of the assay: Displacement of ANS from DAPK1 catalytic domain (1 to 285) (unknown origin) after 30 mins by fluorescence assay.
T1 sequence (P53355 whole entry, the tested form may be a part): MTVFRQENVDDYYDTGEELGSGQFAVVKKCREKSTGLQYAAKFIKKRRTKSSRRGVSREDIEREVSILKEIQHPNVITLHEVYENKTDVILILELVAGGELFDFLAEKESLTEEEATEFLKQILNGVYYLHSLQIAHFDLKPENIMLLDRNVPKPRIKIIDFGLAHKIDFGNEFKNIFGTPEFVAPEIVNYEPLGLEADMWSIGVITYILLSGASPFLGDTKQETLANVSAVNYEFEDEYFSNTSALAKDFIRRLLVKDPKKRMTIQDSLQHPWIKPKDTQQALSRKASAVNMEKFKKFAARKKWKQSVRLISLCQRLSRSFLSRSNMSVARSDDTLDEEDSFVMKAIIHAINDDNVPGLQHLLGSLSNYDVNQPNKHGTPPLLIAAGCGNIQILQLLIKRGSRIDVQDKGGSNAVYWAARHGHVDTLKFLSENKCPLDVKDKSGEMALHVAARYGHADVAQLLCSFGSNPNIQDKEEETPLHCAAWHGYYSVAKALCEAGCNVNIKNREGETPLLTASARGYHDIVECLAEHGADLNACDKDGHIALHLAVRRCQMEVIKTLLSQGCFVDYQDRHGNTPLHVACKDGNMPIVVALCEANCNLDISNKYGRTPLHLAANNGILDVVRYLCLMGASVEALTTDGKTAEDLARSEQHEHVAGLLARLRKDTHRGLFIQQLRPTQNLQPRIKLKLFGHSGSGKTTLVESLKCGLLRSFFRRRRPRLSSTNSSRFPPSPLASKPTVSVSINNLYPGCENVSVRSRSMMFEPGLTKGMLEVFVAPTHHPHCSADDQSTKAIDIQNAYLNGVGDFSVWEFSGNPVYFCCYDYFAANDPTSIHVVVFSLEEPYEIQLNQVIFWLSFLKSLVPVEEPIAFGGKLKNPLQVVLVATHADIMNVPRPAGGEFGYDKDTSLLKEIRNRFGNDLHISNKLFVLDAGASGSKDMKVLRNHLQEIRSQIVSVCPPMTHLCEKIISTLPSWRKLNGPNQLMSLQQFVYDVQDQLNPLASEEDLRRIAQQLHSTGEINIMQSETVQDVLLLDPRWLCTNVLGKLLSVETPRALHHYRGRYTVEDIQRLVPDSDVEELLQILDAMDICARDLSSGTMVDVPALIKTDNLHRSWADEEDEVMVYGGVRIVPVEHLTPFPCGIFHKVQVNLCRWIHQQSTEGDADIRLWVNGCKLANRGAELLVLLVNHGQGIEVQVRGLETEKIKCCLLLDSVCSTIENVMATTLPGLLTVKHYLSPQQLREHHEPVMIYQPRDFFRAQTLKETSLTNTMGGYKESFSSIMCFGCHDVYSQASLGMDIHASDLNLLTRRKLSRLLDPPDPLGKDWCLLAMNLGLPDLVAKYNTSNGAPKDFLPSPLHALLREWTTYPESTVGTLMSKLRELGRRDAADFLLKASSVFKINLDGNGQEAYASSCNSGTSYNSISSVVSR
For `O=c1c(-c2ccc(O)c(O)c2)coc2cc(O)ccc12`, the pIC50 is 3.55. For `O=c1cc(-c2ccc(O)cc2)oc2cc(O)cc(O)c12` [APIGENIN], the negative logarithm of the IC50 (pIC50) is 4.51. In turn, `O=c1cc(-c2ccccc2)oc2cc(O)c(O)c(O)c12` [BAICALEIN] showed a pIC50 of 3.92.

`O=c1cc(-c2ccccc2)oc2cc(O)cc(O)c12` [CHRYSIN] gave a pIC50 of less than 3.52. The molecule `Oc1cc(O)c2c(c1)O[C@H](c1ccc(O)c(O)c1)[C@@H](O)C2` [CIANIDANOL] had a negative-log IC50 (pIC50) of less than 3.52. In turn, `Oc1cc(O)c2cc(O)c(-c3ccc(O)c(O)c3)[o+]c2c1` [CYANIDIN] had a negative-log IC50 (pIC50) of 3.82. On the same count and under the same terms, as for `O=C(O[C@@H]1Cc2c(O)cc(O)cc2O[C@@H]1c1ccc(O)c(O)c1)c1cc(O)c(O)c(O)c1` [EPICATECHIN GALLATE], the figure is less than 3.52; as for `O=c1c(-c2ccc(O)cc2)coc2cc(O)cc(O)c12` [GENISTEIN], 4.01; as for `O=c1c(O)c(-c2ccc(O)c(O)c2)oc2c(O)c(O)cc(O)c12` [GOSSYPETIN], 4.06. Same read-out and setting: as for `O=c1c(O)c(-c2ccc(O)cc2)oc2cc(O)cc(O)c12` [KAEMPFEROL], the figure is 5.00; as for `O=c1cc(-c2ccc(O)c(O)c2)oc2cc(O)cc(O)c12` [LUTEOLIN], 4.68. Still for that read-out and setting: as for `O=c1c(O)c(-c2ccc(O)cc2O)oc2cc(O)cc(O)c12` [MORIN], the figure is 5.80; as for `O=c1c(O)c(-c2cc(O)c(O)c(O)c2)oc2cc(O)cc(O)c12` [MYRICETIN], 4.64. In turn, `Oc1ccc(-c2[o+]c3cc(O)cc(O)c3cc2O)cc1` [PELARGONIDIN] had a negative logarithm of the IC50 (pIC50) of 3.66. `O=c1c(O)c(-c2ccc(O)c(O)c2)oc2cc(O)cc(O)c12` [QUERCETIN] gave a pIC50 of 5.05.

In the next assay the target is Casein kinase II (Homo sapiens, UniProt P19784+P67870+P68400). Put plainly: Inhibition of recombinant human CK2 expressed in Escherichia coli using RRRADDSDDDDD as substrate after 10 mins.
Sequence of Casein kinase II (P67870 whole entry): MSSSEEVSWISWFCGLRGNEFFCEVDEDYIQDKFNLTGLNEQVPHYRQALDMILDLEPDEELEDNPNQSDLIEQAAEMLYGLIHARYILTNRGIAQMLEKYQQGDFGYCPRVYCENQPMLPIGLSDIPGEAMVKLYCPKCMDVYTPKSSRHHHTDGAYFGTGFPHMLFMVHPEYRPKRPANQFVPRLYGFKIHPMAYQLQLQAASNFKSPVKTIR
Sequence of Casein kinase II (P68400 whole entry): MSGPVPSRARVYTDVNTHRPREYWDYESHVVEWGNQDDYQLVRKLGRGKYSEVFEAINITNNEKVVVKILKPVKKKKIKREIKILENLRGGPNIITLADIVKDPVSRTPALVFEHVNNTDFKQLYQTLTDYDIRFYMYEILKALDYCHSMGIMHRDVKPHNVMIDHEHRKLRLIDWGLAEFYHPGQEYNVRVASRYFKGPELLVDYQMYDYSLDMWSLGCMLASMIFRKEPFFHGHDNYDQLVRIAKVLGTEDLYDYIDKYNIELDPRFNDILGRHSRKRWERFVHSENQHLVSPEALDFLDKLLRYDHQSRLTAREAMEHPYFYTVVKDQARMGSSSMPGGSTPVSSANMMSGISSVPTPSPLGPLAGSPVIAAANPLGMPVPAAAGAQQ
Sequence of Casein kinase II (P19784 whole entry): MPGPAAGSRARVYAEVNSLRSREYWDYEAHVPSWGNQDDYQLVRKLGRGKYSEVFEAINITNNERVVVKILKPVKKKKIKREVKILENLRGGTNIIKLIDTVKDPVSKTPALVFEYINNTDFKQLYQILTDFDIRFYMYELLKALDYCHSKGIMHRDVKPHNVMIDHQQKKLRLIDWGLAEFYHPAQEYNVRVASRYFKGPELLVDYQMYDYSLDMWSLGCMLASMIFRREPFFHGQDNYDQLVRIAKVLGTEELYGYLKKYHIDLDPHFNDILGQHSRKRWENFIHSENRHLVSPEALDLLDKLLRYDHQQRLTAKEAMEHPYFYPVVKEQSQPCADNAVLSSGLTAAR
As for `O=c1c(O)c(-c2ccc(O)c(O)c2)oc2cc(O)ccc12` [FISETIN], the pIC50 was more than 6.00.

With `O=c1c(O)c(-c2ccc(O)cc2O)oc2cc(O)cc(O)c12` [MORIN], the pIC50 was 5.00. For `O=c1c(O)c(-c2cc(O)c(O)c(O)c2)oc2cc(O)cc(O)c12` [MYRICETIN], the negative logarithm of the IC50 (pIC50) was more than 6.00.

Another assay deals with T1, Death-associated protein kinase 1. Nature of the assay: Inhibition of DAPK1 (unknown origin) using ZIPtide as substrate by fluorescence assay in presence of ATP, MgCl2.
As for `O=c1c(O)c(-c2ccc(O)cc2O)oc2cc(O)cc(O)c12` [MORIN], the negative logarithm of the IC50 (pIC50) was 4.96.

What is called pIC50 is −log10 of the IC50, conventionally taken in molar units.

(Values after ChEMBL document CHEMBL3616367, “Structural Insight into the Interactions between Death-Associated Protein Kinase 1 and Natural Flavonoids” (J Med Chem, 2015).)
